In patent US12714711B2, “Salts of neuroceuticals and uses thereof” (priority 2020, dated 2026):
Converted amounts (≈) assume the structure as drawn.

Columns and labels:
mice = test: von Frey test, paw withdrawal threshold; format: in vivo, C57BL/6J male mice; conditions: for paw withdrawal threshold compared to vehicle control group / AUC values of von Frey pain threshold compared to vehicle control group / AUC of von Frey pain threshold relative to gabapentin group: mice, single oral dose; for paw withdrawal threshold compared to vehicle control group: gabapentin 20 mg/kg equivalent (salts 192, 106.02, 77.34 mg/kg), 15-180 min; for paw withdrawal threshold compared to vehicle control group / AUC values of von Frey pain threshold compared to vehicle control group: enriched TA 200 mg/kg; for AUC values of von Frey pain threshold compared to vehicle control group: gabapentin 20 mg/kg equivalent; for AUC of von Frey pain threshold relative to gabapentin group: same amount of gabapentin (20 mg/kg); for Pain threshold to time AUC after 120 min: von Frey test, acute oral, 20 mg/kg
Experimental: The objective of this experiment was to assess the analgesic effects of gabapentin:enriched tannic acid salts in mice. The testing compounds were administrated to mice by oral gavage before von Frey test (a typical assay for pain sensation).
Mice used in this study were randomly assigned into six groups: • Group 1: Vehicle control • Group 2: Enriched TA (200 mg/kg) • Group 3: GBP (20 mg/kg) • Group 4: GBP:enriched TA 1:1 salt (192 mg/kg) • Group 5: GBP:enriched TA 2:1 salt (106.02 mg/kg) • Group 6: GBP:enriched TA 3:1 salt (77.34 mg/kg)
Each mouse in Groups 1-6 received a single, oral dose of 65% PEG400 in ddH2O, enriched tannic acid at 200 mg/kg, gabapentin at 20 mg/kg, gabapentin:enriched tannic acid 1:1 salt (192 mg/kg), gabapentin:enriched tannic acid 2:1 salt (106.02 mg/kg) and gabapentin:enriched tannic acid 3:1 salt (77.34 mg/kg). The amount of gabapentin administered to the mice in Groups 3 to 6 was the same.
Mice were habituated in individual transparent acrylic box on a wire-mesh floor for 30 min before testing. An electronic von Frey apparatus (Bioseb-EVF4S) was used to measure the paw withdrawal thresholds (g) of each mouse before drug administration (baseline) and at 15, 30, 60, 120 and 180 mins after drug administration.

[1] = Water solubility at 25° C.; conditions: for water solubility: 25° C.; for solubility: water, 25 °C
MK-801 treated mice = test: Open field test, MK-801 induced hyper-locomotion; conditions: for Open-field test effect (formula [formula] not readable) / Open-field test, anti-hyperactivity effect (formula [formula] not readable): acute oral; for locomotor activity in MK-801 treated mice: MK-801 0.2 mg/kg i.p.; for Open-field test, anti-hyperactivity effect (formula [formula] not readable): mice;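 as to all read-outs here: adult male C57BL/6J mice, locomotion counted as total photobeam breaks over 60 minutes in an open field photobeam activity system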
Experimental: All mice were tested with open field task.
In this study, the mice were placed in a Plexiglas cage (37.5 cm×21.5 cm×18 cm) under 50-65 lux light intensity. Their spontaneous locomotor activities were measured for 60 minutes using the Photobeam Activity System (PAS)-open field (San Diego Instruments, San Diego, Calif., USA). The total number of photo beam breaks of each mouse was measured as an index of locomotor activity.
The schizophrenia-like behavior, MK801-induced hyperactivity, were tested by open field task.
All mice were tested in an open field task.
The schizophrenia-like behavior, NMDA-hypofunction-induced hyperactivity, were tested by open field task.
The amount of paliperidone administered to Groups 3 and 4 was equal. The schizophrenia-like behavior, MK801-induced hyperactivity, were tested by open field task.
The amount of paliperidone administered to Groups 3 and 4 was equal. The schizophrenia-like behavior, NMDA-hypofunction-induced hyperactivity, were tested by open field task.

[2] = Carr Index (USP 1174), flowability; format: physicochemical
in vivo = conditions: male, Sprague-Dawley, rat, po, 60 mg/kg
Experimental: All animals used in this study were adult rats (at least 2.5 months of age).
Male Sprague-Dawley rats having a bodyweight between 250-300 g were randomly assigned to two groups. […] The chemicals were suspended in sesame oil and administrated by single oral gavage at 2 ml/kg. All rats were fasted overnight with free access to water before oral administration of the testing compositions. On the day of dosing, the blood samples were collected at 0 min (prior to dosing), and 0.25, 0.5, 1, 2, 4, 6, 8, and 24 hr post-dosing.
Blood samples were collected from rat jugular veins and transferred into tubes coated with sodium heparin. To obtain plasma, the blood samples were centrifuged at 2,500×g for 15 min at 4° C. and the supernatants were collected and kept frozen in a freezer at −80° C., until they were analyzed.
The plasma concentration of donepezil was determined by LC/MS. The chromatographic separation was carried out on a 5 μm EVO C8 100 Å LC column (100×4.6 mm, Kinetex®). The mobile phase was 0.1% formic acid in water and acetonitrile:methanol=8:2 set as gradient. Flow rate used was 0.3 mL/min. Column temperature was maintained at 40° C. and the injection volume was 30 μL.
The pharmacokinetic parameters were calculated using non-compartmental analysis (NCA) with WinNonlin to assess the systemic exposure of donepezil in rats.

[3] = risperidone 10 mg/kg as printed in Table 29
[4] = oral risperidone 0.06 mg/kg or nicotinic acid salt 0.078 mg/kg

gabapentin:enriched tannic acid 1:1 salt
paw withdrawal threshold compared to vehicle control group (mice): significantly higher at 60 and 120 min
AUC values of von Frey pain threshold compared to vehicle control group (mice): significantly higher
AUC of von Frey pain threshold relative to gabapentin group (mice): about twice as high as in gabapentin group

Cc1nc2n(c(=O)c1CCN1CCC(c3noc4cc(F)ccc34)CC1)CCCC2.O=C(O)c1cccnc1 [risperidone:nicotinic acid 1:1 salt, resperidone:nicotinic acid 1:1 salt]
water solubility [1]: 2170.77 mg/mL
Open-field test effect (formula [formula] not readable) (MK-801 treated mice; [3]): 80.1%
locomotor activity in MK-801 treated mice (MK-801 treated mice; [4]): higher potency to MK-801-induced hyperactivity

NCC1(CC(=O)O)CCCCC1 [gabapentin, reference compound]
paw withdrawal threshold compared to vehicle control group (mice): no difference from control group at any time point examined
AUC values of von Frey pain threshold compared to vehicle control group (mice): little to no effect
Pain threshold to time AUC after 120 min (mice): 1.28

Cc1nc2n(c(=O)c1CCN1CCC(c3noc4cc(F)ccc34)CC1)CCCC2O.O=C(O)c1ccccc1 (stereo not shown) [paliperidone:benzoic acid 1:1 salt, Paliperidone:Benzoic Acid 1:1 Salt]
Carr Index [2]: 13%
water solubility [1]: 10.4 mg/mL
Open-field test effect (formula [formula] not readable) (MK-801 treated mice; paliperidone 0.06 mg/kg (benzoic acid salt study)): 85.0%
locomotor activity in MK-801 treated mice (MK-801 treated mice; oral paliperidone 0.06 mg/kg or benzoic acid salt 0.076 mg/kg): significant decrease in locomotion activity, compared with paliperidone group

gabapentin:enriched tannic acid 3:1 salt
paw withdrawal threshold compared to vehicle control group (mice): significantly higher at 30, 60 and 120 min after administration
AUC values of von Frey pain threshold compared to vehicle control group (mice): significantly higher
AUC of von Frey pain threshold relative to gabapentin group (mice): about twice as high as in gabapentin group
Pain threshold to time AUC after 120 min (mice): 2.80

CN1CCN(C2=Nc3cc(Cl)ccc3Nc3ccccc32)CC1 [clozapine, reference compound]
AUC (in vivo): 1320 ng·h/mL
AUC Increased (%) (in vivo): 100%
Tmax (in vivo): 1 h
half-life (in vivo): 5.6 ± 1.7 h
solubility [1]: 0.18 mg/mL (≈ 551 µM)
Recovery rate (%) (MK-801 treated mice; MK801-treated mice, dosage of clozapine 1 mg/kg (benzoic acid salt study)): 65.1%
Recovery rate (%) (MK-801 treated mice; MK801 model, dosage of clozapine 1 mg/kg): 57%
Recovery rate (%) (MK-801 treated mice; MK801 model, dosage of clozapine 2 mg/kg): 79%
Open-field test, anti-hyperactivity effect (formula [formula] not readable) (MK-801 treated mice; clozapine 1 mg/kg): 18.77%

gabapentin:enriched tannic acid 2:1 salt
paw withdrawal threshold compared to vehicle control group (mice): significantly higher at 30 min

Cc1nc2n(c(=O)c1CCN1CCC(c3noc4cc(F)ccc34)CC1)CCCC2 [risperidone, reference compound]
solubility [1]: < 0.005 mg/mL
Open-field test effect (formula [formula] not readable) (MK-801 treated mice; [3]): 48.7%
locomotor activity in MK-801 treated mice (MK-801 treated mice; [4]): alleviates MK-801 induced hyperactivity

O=C(O)/C=C/C(=O)O.OCCOCCN1CCN(C2=Nc3ccccc3Sc3ccccc32)CC1 [quetiapine:fumaric acid 1:1 salt, reference compound]
Carr Index [2]: 33%

olanzapine:enriched tannic acid 2:1 salt
Open-field test, anti-hyperactivity effect (formula [formula] not readable) (MK-801 treated mice; olanzapine 0.5 mg/kg): 112.82%

olanzapine:pantothenic acid 5:1 salt
Open-field test effect (formula [formula] not readable) (MK-801 treated mice; olanzapine 0.5 mg/kg): 101.0%
locomotor activity in MK-801 treated mice (MK-801 treated mice; oral olanzapine 0.5 mg/kg or 5:1 salt 0.547 mg/kg): higher potency to MK-801-induced hyperactivity

Cc1nc2n(c(=O)c1CCN1CCC(c3noc4cc(F)ccc34)CC1)CCCC2O.O=C(O)c1cccnc1.O=C(O)c1cccnc1 (stereo not shown) [paliperidone:nicotinic acid 1:2 salt]
Carr Index [2]: 29%
water solubility [1]: 137.3 mg/mL
Open-field test effect (formula [formula] not readable) (MK-801 treated mice; paliperidone 0.06 mg/kg (nicotinic acid salt study)): 89.7%
locomotor activity in MK-801 treated mice (MK-801 treated mice; oral paliperidone 0.06 mg/kg or nicotinic acid 1:2 salt 0.094 mg/kg): significant decreases in locomotion activity, compared with paliperidone group

Cc1cc2c(s1)Nc1ccccc1N=C2N1CCN(C)CC1 [olanzapine, reference compound]
Recovery rate (%) (MK-801 treated mice; MK801-treated mice, dosage of olanzapine 0.1 mg/kg): 36.8%
Open-field test effect (formula [formula] not readable) (MK-801 treated mice; olanzapine 0.5 mg/kg): 85.8%
Open-field test, anti-hyperactivity effect (formula [formula] not readable) (MK-801 treated mice; olanzapine 0.5 mg/kg): 30.53%

OCCOCCN1CCN(C2=Nc3ccccc3Sc3ccccc32)CC1 [quetiapine, reference compound]
Open-field test effect (formula [formula] not readable) (MK-801 treated mice; quetiapine 10 mg/kg): 8.7%
locomotor activity in MK-801 treated mice (MK-801 treated mice; oral quetiapine 10 mg/kg or nicotinic acid salt […]): alleviates MK-801 induced hyperactivity
